Assay results reported in publication PMC12518634, “The noncanonical function of liver-type phosphofructokinase potentiates the efficacy of HDAC inhibitors in cancer” (Signal Transduction and Targeted Therapy, 2025).
Where a name gives a salt, the structure may show the parent alone. Read-outs that look alike come from different tables or passages of the source.

Experiments:
[1] = test system: 783C-6; assay: High-throughput drug screen, CellTiter-Glo viability, 72 h; format: cell-based, human; design: AUC: scale not given here; conditions: for DSS: DSS of DSRT analysis; for AUC: area under the dose-response curve; for MIN: minimum of dose-response curve; for EC50: 72 h, read-out: EC50; for SLOPE: slope of fitted dose-response curve
How it was run: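 Cholangiocarcinoma cells were seeded at 3000/well in 384-well plates and dosed after 24 h. Drugs were tested at 10, 1, 0.1, 0.01 and 0.001 μM in duplicate for 72 h, with viability read by CellTiter-Glo luminescence.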

[2] = test system: 1405R3; assay: as above; format: cell-based, human; design: AUC: scale not given here; conditions: 1405R3 DSRT analysis; for AUC: area under the dose-response curve; for DSS: drug sensitivity score; for MIN: lower asymptote of fitted dose-response curve; for EC50: CellTiter-Glo viability, 72 h, fitted dose-response curve, Min.Conc.tested 1, Max.Conc.tested 10000, GI50, read-out: EC50; for SLOPE: slope of fitted dose-response curve
How it was run: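 Responses are drug sensitivity scores (efficacy cutoff ≥10), fitted from CellTiter-Glo luminescence. Each drug was given at five concentrations (10 to 0.001 μM, tenfold steps) in duplicate for 72 h. Cells were plated at 3000/well 24 h before dosing.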

[3] = 783C-6 cells, DSRT analysis, CellTiter-Glo viability, concentrations tested 1 to 10000 (unit inferred), GI50

O=C(CCCCCCNC(=O)c1cnc(N(c2ccccc2)c2ccccc2)nc1)NO [Ricolinostat]
DSS ([1]; 783C-6 cells): 2.2
AUC ([1]; 783C-6 cells): 22.4
MIN ([1]; 783C-6 cells): 66.7
EC50 ([1]; Homo sapiens): 2140 nM
AUC [2]: 20.6
DSS [2]: 1.9
MIN [2]: 71.1
EC50 ([2]; Homo sapiens): 1950 nM

CC(C)N(CCCNC(=O)Nc1ccc(C(C)(C)C)cc1)C[C@H]1O[C@@H](n2cc(Br)c3c(N)ncnc32)[C@H](O)[C@@H]1O [SGC 0946]
DSS ([1]; 783C-6 cells): 0
AUC ([1]; 783C-6 cells): 19.5
MIN ([1]; 783C-6 cells): 94.1
AUC [2]: 6.1
DSS [2]: 0
MIN [2]: 93.6

COc1ccc(CCc2nc3cc(-c4c(C)noc4C)ccc3n2C[C@H](C)N2CCOCC2)cc1Cl [SGC-CBP30]
DSS ([1]; 783C-6 cells): 0
AUC ([1]; 783C-6 cells): 4.1
MIN ([1]; 783C-6 cells): 86.4
AUC [2]: 28.3
DSS [2]: 0
MIN [2]: 84.6

Cc1cc(Nc2ccc(NC(=O)c3ccc(Nc4ccnc5ccccc45)cc3)cc2)nc(N)n1 [SGI-1027]
DSS ([1]; 783C-6 cells): 0
AUC ([1]; 783C-6 cells): 2.3
MIN ([1]; 783C-6 cells): 92.3
SLOPE ([1]; 783C-6 cells): -1
AUC [2]: 19.4
DSS [2]: 0
MIN [2]: 87.3
SLOPE [2]: -0.4

CN1CCC(CNc2ccc3ncc(-c4cccc(OC(F)(F)F)c4)n3n2)CC1 [SGI-1776 free base]
EC50 [1, 3]: 3230 nM
DSS ([1]; 783C-6 cells): 4.9
AUC ([1]; 783C-6 cells): 44.9
MIN ([1]; 783C-6 cells): 10.3
SLOPE ([1]; 783C-6 cells): -2.5
EC50 [2]: 3060 nM
AUC [2]: 51.4
DSS [2]: 5.7
MIN [2]: 1.9
SLOPE [2]: -2.5

CCCCCCCCCCCCCCCCNNC(=O)c1cccs1 [SIS17]
DSS ([1]; 783C-6 cells): 0
AUC ([1]; 783C-6 cells): 4.7
MIN ([1]; 783C-6 cells): 84.4
SLOPE ([1]; 783C-6 cells): -1
AUC [2]: 24.4
DSS [2]: 0
MIN [2]: 84.3
SLOPE [2]: -0.1

COc1ccc(N(C)c2nc(C)nc3ccccc23)cc1OCCCC(=O)NO [SKLB-23bb]
EC50 [1, 3]: 60.2 nM
DSS ([1]; 783C-6 cells): 13.8
AUC ([1]; 783C-6 cells): 111
MIN ([1]; 783C-6 cells): 50
SLOPE ([1]; 783C-6 cells): -2.5
EC50 [2]: 731 nM
AUC [2]: 79.5
DSS [2]: 8.2
MIN [2]: 33.2
SLOPE [2]: -0.8

O=C1NC(=O)/C(=C/c2cccc(C(F)(F)F)c2)S1 [SMI-4a]
DSS ([1]; 783C-6 cells): 0
AUC ([1]; 783C-6 cells): 2.1
MIN ([1]; 783C-6 cells): 96.8
SLOPE ([1]; 783C-6 cells): -2.5
AUC [2]: 0.1
DSS [2]: 0
MIN [2]: 99.6
SLOPE [2]: -1.3

CCCOc1ccc(/C=C2\SC(=O)NC2=O)cc1 [SMI-16a]
DSS ([1]; 783C-6 cells): 0
AUC ([1]; 783C-6 cells): 5.7
MIN ([1]; 783C-6 cells): 91.3
SLOPE ([1]; 783C-6 cells): -0.5
AUC [2]: 0.1
DSS [2]: 0
MIN [2]: 100
SLOPE [2]: -0.1

C/C(=N\NC(=O)c1cccc(S(=O)(=O)N2CCOCC2)c1)c1cc(Cl)ccc1O [SP2509]
EC50 [1, 3]: 2180 nM
DSS ([1]; 783C-6 cells): 4.9
AUC ([1]; 783C-6 cells): 43.2
MIN ([1]; 783C-6 cells): 35
SLOPE ([1]; 783C-6 cells): -2.5
EC50 [2]: 1570 nM
AUC [2]: 31.9
DSS [2]: 3.1
MIN [2]: 61
SLOPE [2]: -1.6

CCCCNNC(=O)c1ccc(-c2cccc(F)c2F)cc1 [SR-4370]
EC50 [1, 3]: 2630 nM
DSS ([1]; 783C-6 cells): 6.1
AUC ([1]; 783C-6 cells): 54.2
MIN ([1]; 783C-6 cells): 7.5
SLOPE ([1]; 783C-6 cells): -2.5
EC50 [2]: 2080 nM
AUC [2]: 63.7
DSS [2]: 7.2
MIN [2]: 6.9
SLOPE [2]: -2.5

CCOC(=O)NCCCC(=O)NCCc1ccccc1 [Santacruzamate A]
DSS ([1]; 783C-6 cells): 0
AUC ([1]; 783C-6 cells): 2.2
MIN ([1]; 783C-6 cells): 94.7
SLOPE ([1]; 783C-6 cells): -0.7
AUC [2]: 1
DSS [2]: 0
MIN [2]: 92
SLOPE [2]: -2.5

O=C(CCCCCN1C(=O)c2cccc3cccc(c23)C1=O)NO [Scriptaid]
DSS ([1]; 783C-6 cells): 8.6
AUC ([1]; 783C-6 cells): 74.4
MIN ([1]; 783C-6 cells): 3.2
EC50 ([1]; Homo sapiens): 1710 nM
AUC [2]: 77.8
DSS [2]: 9
MIN [2]: 11.5
EC50 ([2]; Homo sapiens): 1330 nM

NC(=O)C1CCCc2c1[nH]c1ccc(Cl)cc21 (stereo not shown) [Selisistat]
DSS ([1]; 783C-6 cells): 0
AUC ([1]; 783C-6 cells): 11.9
MIN ([1]; 783C-6 cells): 93.6
SLOPE ([1]; 783C-6 cells): -0.1
AUC [2]: 1
DSS [2]: 0
MIN [2]: 97.8
SLOPE [2]: -0.6

O=C(O)CCCc1ccccc1 [Sodium Phenylbutyrate]
DSS ([1]; 783C-6 cells): 0
AUC ([1]; 783C-6 cells): 15
MIN ([1]; 783C-6 cells): 91.2
AUC [2]: 9.3
DSS [2]: 0
MIN [2]: 90.9

CCCC(=O)[O-].[Na+] [Sodium butyrate]
DSS ([1]; 783C-6 cells): 0
AUC ([1]; 783C-6 cells): 0.1
MIN ([1]; 783C-6 cells): 100
SLOPE ([1]; 783C-6 cells): -0.1
AUC [2]: 0.1
DSS [2]: 0
MIN [2]: 100
SLOPE [2]: -0.1

CNC(=O)c1cc(Oc2ccc(NC(=O)Nc3ccc(Cl)c(C(F)(F)F)c3)cc2)ccn1 [Sorafenib Tosylate]
DSS ([1]; 783C-6 cells): 3.4
AUC ([1]; 783C-6 cells): 31.4
EC50 ([1]; Homo sapiens): 2190 nM
AUC [2]: 36.2
DSS [2]: 3.8
MIN [2]: 14
EC50 ([2]; Homo sapiens): 3940 nM

O=C1CCc2c(ccc3ccccc23)O1 [Splitomicin]
DSS ([1]; 783C-6 cells): 0
AUC ([1]; 783C-6 cells): 7.8
MIN ([1]; 783C-6 cells): 95
AUC [2]: 3.1
DSS [2]: 0
MIN [2]: 95.1

O=C(CCCCCCC(=O)NO)NO [Suberohydroxamic acid]
DSS ([1]; 783C-6 cells): 0
AUC ([1]; 783C-6 cells): 1.4
MIN ([1]; 783C-6 cells): 95.2
AUC [2]: 0.5
DSS [2]: 0
MIN [2]: 98

Cl.Cn1cc(C(=O)Nc2ccc([C@@H]3C[C@H]3NCC3CC3)cc2)cn1 [T-3775440 HCl]
DSS ([1]; 783C-6 cells): 0
AUC ([1]; 783C-6 cells): 15
MIN ([1]; 783C-6 cells): 90.4
SLOPE ([1]; 783C-6 cells): -0.1
AUC [2]: 0.3
DSS [2]: 0
MIN [2]: 97.3
SLOPE [2]: -2.5

C=CC(=O)N1CC[C@H](n2nc(C#Cc3cc(OC)cc(OC)c3)c3c(N)ncnc32)C1 [TAS-120]
DSS ([1]; 783C-6 cells): 0
AUC ([1]; 783C-6 cells): 1.7
MIN ([1]; 783C-6 cells): 94.4
AUC [2]: 7.2
DSS [2]: 0
MIN [2]: 91.3

N#Cc1c(-c2ccccc2)cc(-c2cc(Br)ccc2O)[nH]c1=O [TCS PIM-1 1]
DSS ([1]; 783C-6 cells): 0
AUC ([1]; 783C-6 cells): 5.4
MIN ([1]; 783C-6 cells): 92.2
SLOPE ([1]; 783C-6 cells): -0.4
AUC [2]: 2.3
DSS [2]: 0
MIN [2]: 96.8
SLOPE [2]: -0.4

CC(C)(CNC(=O)c1cccc(-c2noc(C(F)(F)F)n2)c1)c1coc(-c2ccccc2)n1 [TMP195]
DSS ([1]; 783C-6 cells): 0
AUC ([1]; 783C-6 cells): 1.4
MIN ([1]; 783C-6 cells): 96
SLOPE ([1]; 783C-6 cells): -0.9
AUC [2]: 1.1
DSS [2]: 0
MIN [2]: 97.2
SLOPE [2]: -0.8

O=C(NCC1(c2nc(-c3ccccc3)cs2)CCOCC1)c1cccc(-c2noc(C(F)(F)F)n2)c1 [TMP269]
DSS ([1]; 783C-6 cells): 2.5
AUC ([1]; 783C-6 cells): 50.1
MIN ([1]; 783C-6 cells): 84.2
SLOPE ([1]; 783C-6 cells): -0.3
AUC [2]: 24.8
DSS [2]: 0
MIN [2]: 87
SLOPE [2]: -0.2

CC(=O)Nc1ccc(C(=O)Nc2ccccc2N)cc1 [Tacedinaline]
DSS ([1]; 783C-6 cells): 0.3
AUC ([1]; 783C-6 cells): 7.5
MIN ([1]; 783C-6 cells): 82.2
AUC [2]: 9.7
DSS [2]: 0.6
MIN [2]: 76.8
